Reference: patent EP4585599A1, “NITROGEN-CONTAINING FUSED RING COMPOUND, INTERMEDIATE THEREOF, PREPARATION METHOD THEREFOR AND USE THEREOF” (Hangzhou Synrx Therapeutics Biomedical Technology Co., Ltd., priority 2022, dated 2024)
Converted amounts (≈) assume the structure as drawn. “And” between values parts separate entries of the source, which are not always exact repeats. Identical values can stand only once. Like-named read-outs stand apart in the source and are kept apart here.

How the values were obtained:
Solubility assay = details: phosphate buffer, pH 7.4, aqueous buffer, kinetic from dmso stock
Method: 1) Prepare 0.1 M Na2PO4 buffer (pH 7.4): 11 g of Na2HPO4 (FW: 141.96) and 3.5 g of NaH2PO4_2H2O (FW: 156.03) were added to 1L of Mili-Q water, with pH adjusted to 7.4 using phosphoric acid or sodium hydroxide. 2) 10 µL of the compound to be tested (concentration: 10 mM in DMSO) was added to 990 µL of Na2PO4 buffer (final DMSO concentration: 1%) prepared in Step 1). 3) The sample tube was shaken at room temperature for 2 hours (1000 rpm/min). 4) Prepare the calibration curve: a) Prepare 300 µM spiking solution (SS): 6 µL (10 mM in DMSO) of the stock solution of the compound to be tested was added to 194 µL of MeOH/ACN (4:1); and b) Draw the standard curve.
5) The samples were centrifuged (10 min, 12,000 rpm) to precipitate insoluble particles. The supernatant was filtered with a 0.22 µm filter membrane, and then transferred to a new centrifuge tube. 6) The supernatant was diluted 10-fold with 100 mM buffer. The supernatant (10 µL) was added to the buffer (100 mM, 90 µL) and diluted 10-fold. 7) The sample was prepared under LC-MS/MS (API 4000) detection.
10 µL of the sample (10-fold dilution) and a standard curve sample were added to 400 µL of (MeOH: ACN=1:1) solution, and detected on the instrument, and the solubility value was calculated according to the standard curve.

[1] = target: T1, helicase domain of the Pol θ protein (Homo sapiens, UniProt O75417); experiment: Biochemical Activity Assay (ADP Glo Assay) of Pol θ inhibitor, ATPase activity
T1 construct: The helicase domain of the Pol θ protein was purified from insect protein expression system; made in house; host or cells: insect protein expression system

[2] = Mouse PK assay after oral administration; details: for MRT / half-life / bioavailability: male, ICR, mouse, po; for MRT / half-life / Area under curve (0-t; hr * ng/mL) / Peak concentration / bioavailability: plasma; for Time to peak / Area under curve (0-t; hr * ng/mL) / Peak concentration: mice, oral
Method: The objective of this experiment was to study the pharmacokinetics of the test compound in ICR mice (male, 18-22 g, 4-6 weeks old, Beijing Vital River Laboratory Animal Technology Co., Ltd.) after oral administration. The specific experimental procedures were as follows: • 1) The compound was dissolved in 5% DMSO + 40% PEG + 20% (10% TPGS) in water + 35% water at a concentration of 0.5 mg/mL, and then administered orally (5 mL/Kg); and • 2) Blood samples were collected, with 0.03 mL collected at 0.25 h, 0.5 h, 1 h, 2 h, 4 h, 8 h, and 24 h, and EDTA-K2 was added. […] The blood was centrifuged for 5 min at 4000 g in a centrifuge at 4°C to collect plasma. Plasma samples were aliquoted into clean polyethylene microcentrifuge tubes and then stored in a freezer at -75 ± 15°C before analysis; and • 3) Samples were analyzed, and the concentration of the compound in each plasma sample was analyzed by LC-MS/MS. For plasma measurements, pharmacokinetic parameters were calculated using WinNonlin (PhoenixTM, version 8.3) or other similar software.

in vitro = details: mouse, microsomes, pH 7.4
Method: a) Phosphate buffer solution (PBS): 100 mM, pH=7.4±0.1.
73.21 g of dipotassium phosphate trihydrate K2HPO4·3H2O (MW=228.22) and 10.78 g of potassium dihydrogen phosphate KH2PO4 (MW=136.09) were dissolved in 4000 mL of pure water, with pH adjusted to 7.4 ± 0.1 using phosphoric acid or potassium hydroxide.
b) Microsome working solution: 1.0 mg/mL.
The purchased mouse liver microsomes (IPHASE, Cat. No.: 0121E1.01, Lot. No.: 22F001) were of 20 mg/mL (10 mg, 0.5 mL), with 225 µL added to 4275 µL of PBS solution to prepare 1.0 mg/mL microsome working solution.
(Note whether the precipitation occurred) • III, 200 µL of the 40 mM NADPH stock solution, 2.0 mL of the 12 mM magnesium chloride stock solution, and 1.80 mL of the PBS solution were used to prepare the working solution of the NADPH regeneration system, containing the 2 mM NADPH solution and the 6 mM magnesium chloride mixture.
d) Stop solution: containing 200 ng/mL tolbutamide acetonitrile solution. • I, 6.006 mg of tolbutamide (MV=270.35, 99.9%) solids were weighed, and 30 mL of acetonitrile was added to prepare the 200 µg/mL of tolbutamide stock solution. • II, 500 mL of acetonitrile was added to 500 µL of the 200 µg/mL tolbutamide stock solution to obtain the tolbutamide acetonitrile solution with a concentration of 200 ng/mL.
e) Test sample/reference working solution: 100 µM test sample/reference working solution • I, 1 mL of 1.0 mg/mL testosterone (MV=288.42) solution was purchased, and 155.8 µL of ACN was added to prepare a testosterone stock solution with a concentration of 3 mM. • II, 1450 µL of acetonitrile was added to 50 µL of the 3 mM testosterone stock solution to prepare the 100 µM testosterone working solution. • III, 6.98 mg of propafenone hydrochloride was weighed, and 1.8433 mL of acetonitrile was added to dissolve the propafenone hydrochloride; and 5.67 mg of diclofenac sodium was weighed, and 1.783 mL of acetonitrile was added to dissolve the diclofenac sodium. 10 mM propafenone stock solution and 10 mM diclofenac stock solution were prepared respectively. • IV, 10 µL of the propafenone stock solution and 10 mL of the diclofenac stock solution were each added with 990 µL of acetonitrile to prepare 100 µM propafenone working solution and 100 µM diclofenac working solutions.
• a) 8 incubation plates were prepared, named T0, T5, T15, T30, T45, T60, Blank60 and NCF60, respectively. • b) 100 µL of microsome working solution was added to each of T0, T5, T15, T30, T45, T60, Blank60 and NCF60; 2 µL of the test (reference) working solution was added to each of T0, T5, T15, T30, T45, T60 and NCF60; and 2 µL of acetonitrile was added to Blank60. • c) T5, T15, T30, T45, T60, and Blank60 were pre-incubated in a 37°C water bath for 10 minutes. • d) 600 µL of the stop solution was added to the sample T0 to stop the reaction; and 98 µL of phosphate buffer solution (PBS) was added to NCF60, and NCF60 samples without the NADPH regeneration system were taken as negative control. • e) 98 µL of the working solution of the NADPH regeneration system was supplemented to the sample T0 that is stopped in the previous step; and after pre-incubation, 98 µL of the working solution of the NADPH regeneration system was added to each of T5, T15, T30, T45, T60, and Blank60 to initiate the reaction.

cells = details: Homo sapiens, DLD-1, 240 h
[3] = read-out: Cell viability assay IC50
[4] = ADP-Glo assay, ATPase activity of Pol θ helicase domain, ssDNA substrate, read-out: Biochemical assay IC50
[5] = read-out: Cell viability assay IC50 (nM), CTG assay, CellTiter Glo, read on Day 10, cell line not given
[6] = read-out: Cell viability assay IC50 (nM), CTG on Day 10, cell line not given (method: DLD1 and DLD1^-/- cells)
[7] = ADP-Glo, ssDNA substrate, 60 min at room temperature, read-out: Biochemical assay IC50
[8] = read-out: Cell viability assay IC50 (nM)
[9] = CTG on Day 10, cell line not given (method: DLD1 and DLD1^-/- cells)
[10] = Biochemical assay IC50 (nM), ADP-Glo assay, ATPase activity of Pol θ helicase domain, ssDNA substrate
[11] = Biochemical assay IC50 (nM), ADP-Glo, ssDNA substrate, 60 min at room temperature
[12] = read-out: Biochemical assay IC50

T1 sequence (O75417 102-554 limits assumed): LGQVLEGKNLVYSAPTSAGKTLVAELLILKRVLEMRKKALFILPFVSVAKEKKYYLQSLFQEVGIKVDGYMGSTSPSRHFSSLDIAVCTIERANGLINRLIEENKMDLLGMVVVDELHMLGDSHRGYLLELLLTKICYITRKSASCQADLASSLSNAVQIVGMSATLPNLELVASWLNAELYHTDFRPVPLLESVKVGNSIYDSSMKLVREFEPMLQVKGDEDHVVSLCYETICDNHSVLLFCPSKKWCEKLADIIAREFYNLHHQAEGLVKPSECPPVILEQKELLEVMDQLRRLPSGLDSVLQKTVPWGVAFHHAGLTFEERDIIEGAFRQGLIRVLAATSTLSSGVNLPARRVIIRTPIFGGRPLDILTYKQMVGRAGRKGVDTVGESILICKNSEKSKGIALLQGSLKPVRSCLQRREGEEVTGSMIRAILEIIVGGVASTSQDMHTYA

Row | Structure (SMILES) | solubility at 2 h (Solubility assay) [µM] | IC50 [1, 4] [nM] | half-life at 1 µM (in vitro) [h] | IC50 (cells; [5]) [nM] | IC50 [1, 7] [nM] | IC50 [3] [µM] | IC50 (cells; [8]) [nM] | further results
1 | COc1ccc(Cl)cc1-c1cc(C)ncc1C(=O)Nc1nc2ncc(-c3ccc(C#N)cc3)nc2s1 [Comparative Example 1, reference compound] | 2.35 (≈ 1.21 µg/mL) | 6.91 |  |  |  |  |  | 
2 | COc1cnc(Cl)cc1-c1cc(C)ncc1C(=O)Nc1nc2cnc(C3=CCC(O)CC3)cc2s1 (stereo not drawn) [Example 11] | 76.4 (≈ 38.8 µg/mL) | 3.11 | 3.75 | 11.2 | < 50 |  |  | MRT ([2]; 25 mg/kg): 3.15 h; half-life ([2]; 25 mg/kg): 2.19 h; Time to peak ([2]; administration dose 25 mg/kg): 0.83 h; Area under curve (0-t; hr * ng/mL) ([2]; administration dose 25 mg/kg): 26.324 µg·h/mL; Peak concentration ([2]; administration dose 25 mg/kg): 7407 ng/mL; IC50 (cells; [6]): < 100 nM
3 | COc1cnc(Cl)cc1-c1cc(C)ncc1C(=O)Nc1nc2ncc([C@H]3CC[C@@H](O)CC3)cc2s1 [Example 26, 2'-chloro-N-(6-((1s, 4s)-4-hydroxycyclohexyl)thiazolo[4,5-b]pyridin-2-yl)-5'-methoxy-6-methyl-[4,4'-bipyridine]-3-carboxamide] |  |  |  |  |  | 0.158 | 100 to 500 | IC50 ([1]; Biochemical assay IC50 (nM)): < 50 nM and 5.69 nM
4 | COc1cnc(Cl)cc1-c1cc(C)ncc1C(=O)Nc1nc2ncc([C@H]3CC[C@H](O)CC3)cc2s1 [Example 27, 2'-chloro-N-(6-((1r, 4r)-4-hydroxycyclohexyl)thiazolo[4,5-b]pyridin-2-yl)-5'-methoxy-6-methyl-[4,4'-bipyridine]-3-carboxamide] |  |  |  |  |  | 0.736 | 500 to 1000 | IC50 ([1]; Biochemical assay IC50 (nM)): < 50 nM and 10.3 nM
5 | COc1cnc(Cl)cc1-c1cc(C)ncc1C(=O)Nc1nc2ccc([C@H]3CC[C@@H](O)CC3)nc2s1 [Example 28] |  | 12.1 |  |  | < 50 | 0.178 | 100 to 500 | 
6 | COc1cnc(Cl)cc1-c1cnccc1C(=O)Nc1nc2ccc([C@H]3CC[C@@H](O)CC3)nc2s1 [Example 33] |  | 24.9 |  |  | < 50 | 0.171 | 100 to 500 | 
7 | COc1cnc(Cl)cc1-c1cc(C)ncc1C(=O)Nc1nc2c(s1)CNCC2 [Example 41, 2'-chloro-5'-methoxy-6-methyl-N-(4,5,6,7-tetrahydrothiazol[5,4-c]pyridin-2-yl)-[4,4'-bipyridine]-3-carboxamide] |  | 1240 |  |  | > 500 |  |  | IC50 [3, 9]: > 1 µM
8 | COc1cnc(Cl)cc1-c1cc(C)ncc1C(=O)Nc1nc2c(s1)CN(C1CCC(O)CC1)CC2 (stereo not drawn) [Example 42, 2'-chloro-N-(5-(4-hydroxycyclohexyl)-4,5,6,7-tetrahydrothiazol[5,4-c]pyridin-2-yl)-5'-m ethoxy-6-methyl-[4,4'-bipyridine]-3-carboxamide] |  | 200 |  |  | 200 to 500 |  |  | IC50 [3, 9]: > 1 µM
9 | COc1cnc(Cl)cc1-c1cc(C)ncc1C(=O)Nc1nc2ccc(N3CCOCC3)cc2s1 [Example 45, 2-chloro-5-methoxy-6-methyl-N-(6-morpholinylbenzothiazol-2-yl)-4, 4'-bipyridin-3-car boxamide] |  |  |  |  |  | 0.141 | 100 to 500 | IC50 [1, 10]: 25.4 nM; IC50 [1, 11]: < 50 nM
10 | COc1cnc(Cl)c(F)c1-c1cc(C)ncc1C(=O)Nc1nc2c(s1)CN(C(=O)C1CCOC1)CC2 (stereo not drawn) [Example 54, 2'-chloro-3'-fluoro-5'-methoxy-6-methyl-N-(5-(tetrahydrofuran-3-carbonyl)-4,5,6,7-tetrahydrothiazol[5,4-c]pyridin-2-yl)-[4,4'-bipyridine]-3-carboxamide] |  |  |  |  |  | 0.794 | 500 to 1000 | IC50 ([1]; Biochemical assay IC50 (nM)): < 50 nM and 40.6 nM
11 | COc1cnc(Cl)cc1-c1cc2cnc(C)n2cc1C(=O)Nc1nc2ccc(C3=CCC(O)CC3)nc2s1 (stereo not drawn) [Example 55, 7-(2-chloro-5-methoxypyridin-4-yl)-N-(5-(4-hydroxycyclohex-1-en-1-yl)thiazol[5,4-b]pyridin-2-yl)-3-methylimidazol[1,5-a]pyridin-6-carboxamide] |  |  |  |  |  | 0.112 | 100 to 500 | IC50 ([1]; Biochemical assay IC50 (nM)): < 50 nM and 28.7 nM
12 | COc1cnc(Cl)cc1-c1cc(C)ncc1C(=O)Nc1nc2ncc(N3CCC(O)CC3)nc2s1 [Example 70] | 70.6 (≈ 36.1 µg/mL) | 2.73 | 8.88 | 14.2 | < 50 |  |  | MRT ([2]; 100 mg/kg): 2.2 h; half-life ([2]; 100 mg/kg): 2.91 h; Time to peak ([2]; administration dose 100 mg/kg): 0.5 h; Area under curve (0-t; hr * ng/mL) ([2]; administration dose 100 mg/kg): 60.434 µg·h/mL; Peak concentration ([2]; administration dose 100 mg/kg): 22767 ng/mL; IC50 (cells; [6]): < 100 nM
13 | COc1cnc(Cl)cc1-c1cc(C)ncc1C(=O)Nc1nc2cnc(-c3c(C)cnn3C)cc2s1 [Example 87] | 79.7 (≈ 40.3 µg/mL) | 1.91 | 14.4 | 6.81 | < 50 |  |  | MRT ([2]; 100 mg/kg): 3.45 h; half-life ([2]; 100 mg/kg): 2.12 h; Time to peak ([2]; administration dose 100 mg/kg): 0.25 h; Area under curve (0-t; hr * ng/mL) ([2]; administration dose 100 mg/kg): 300.735 µg·h/mL; Peak concentration ([2]; administration dose 100 mg/kg): 74833 ng/mL; IC50 (cells; [6]): < 100 nM
14 | COc1cnc(Cl)cc1-c1cc(C)ncc1C(=O)Nc1nn2cc(-c3ccccn3)nc2s1 [Example 97, 2'-chloro-5'-methoxy-6-methyl-N-(6-(pyridin-2-vyl)imidazol[2,1-b][1,3,4]thiadiazol-2-yl)-[4,4'-bipyridine]-3-carboxamide] |  |  |  |  |  | 1.21 | > 1000 | IC50 ([1]; Biochemical assay IC50 (nM)): < 50 nM and 26.4 nM
15 | [2H]C([2H])([2H])c1cc(-c2cc(Cl)ncc2OC)c(C(=O)Nc2nc3ccc(N4CCC(O)CC4)nc3s2)cn1 [Example 109] |  |  |  |  |  | 0.147 | < 100 | IC50 [1, 10]: 6.71 nM; IC50 [1, 11]: < 50 nM
16 | COc1cnc(Cl)cc1-c1cc(C)ncc1C(=O)Nc1nc2cnc(-c3c(C)nnn3C)cc2s1 [Example 175, 2'-chloro-N-(6-(1,4-dimethyl-1H-1,2,3-triazol-5-yl)thiazolo[4,5-c]pyridin-2-yl)-5'-methoxy-6-methyl-[4,4'-bipyridine]-3-carboxamide] | 4.61 (≈ 2.34 µg/mL) | 1.84 | 10.5 | 10 |  |  |  | MRT ([2]; 30 mg/kg): 4.58 h; bioavailability ([2]; 30 mg/kg): 151%; half-life ([2]; 30 mg/kg): 2.68 h; Time to peak ([2]; administration dose 30 mg/kg): 1.67 h; Area under curve (0-t; hr * ng/mL) ([2]; administration dose 30 mg/kg): 293.209 µg·h/mL; Peak concentration ([2]; administration dose 30 mg/kg): 42933 ng/mL
17 | COc1cnc(C(F)F)cc1-c1cc(C)ncc1C(=O)Nc1nc2cnc(-c3c(C)noc3C)cc2s1 [Example 207] | 58.7 (≈ 30.7 µg/mL) | 3.41 | 14.4 | 8.57 |  |  |  | MRT ([2]; 30 mg/kg): 5.13 h; bioavailability ([2]; 30 mg/kg): 311%; half-life ([2]; 30 mg/kg): 1.97 h; Time to peak ([2]; administration dose 30 mg/kg): 1.67 h; Area under curve (0-t; hr * ng/mL) ([2]; administration dose 30 mg/kg): 581.387 µg·h/mL; Peak concentration ([2]; administration dose 30 mg/kg): 52444 ng/mL
18 | COc1cnc(Cl)cc1-c1cc(C)ncc1C(=O)Nc1nc2cnc(-c3c(C)nnn3C)c(F)c2s1 [Example 216] | 61.8 (≈ 32.4 µg/mL) | 3.31 | 28.9 | < 1.52 |  |  |  | MRT ([2]; 30 mg/kg): 3.38 h; bioavailability ([2]; 30 mg/kg): 178%; half-life ([2]; 30 mg/kg): 2.2 h; Time to peak ([2]; administration dose 30 mg/kg): 0.75 h; Area under curve (0-t; hr * ng/mL) ([2]; administration dose 30 mg/kg): 385.297 µg·h/mL; Peak concentration ([2]; administration dose 30 mg/kg): 89917 ng/mL
19 | COc1cnc(Cl)c(F)c1-c1cc(C)ncc1C(=O)Nc1nc2ccccc2s1 [Examples 39] |  |  |  |  |  | 0.108 | 100 to 500 | IC50 [1, 12]: < 50 nM and 8.57 nM
20 | COc1cnc(Cl)cc1-c1cc(C)ncc1C(=O)Nc1nc2ccc(C3(O)CCC(O)CC3)cc2s1 (stereo not drawn) [Examples 89] |  |  |  |  |  | 0.171 | 100 to 500 | IC50 [1, 12]: < 50 nM and 36.7 nM
